Data taken from US10508085B2, “Compounds and methods for IDO and TDO modulation, and indications therefor” (Plexxikon Inc., priority 2016, dated 2019).
Read-outs that look alike come from different tables or passages of the source.

Assays:
[1] = biological target: T1, human TDO (TDO-expressing HEK293 cells) (Homo sapiens, UniProt P48775); assay: Cell based kynurenine assay, TDO-expressing HEK293 cell clones; details: TDO-expressing HEK293 cells, geometric mean, read-out: HEK293 TDO Kynurenine GMean IC50 (μM) (Cellular Assay)
T1 construct: expressed in transfected cells
T1 sequence (P48775 whole entry): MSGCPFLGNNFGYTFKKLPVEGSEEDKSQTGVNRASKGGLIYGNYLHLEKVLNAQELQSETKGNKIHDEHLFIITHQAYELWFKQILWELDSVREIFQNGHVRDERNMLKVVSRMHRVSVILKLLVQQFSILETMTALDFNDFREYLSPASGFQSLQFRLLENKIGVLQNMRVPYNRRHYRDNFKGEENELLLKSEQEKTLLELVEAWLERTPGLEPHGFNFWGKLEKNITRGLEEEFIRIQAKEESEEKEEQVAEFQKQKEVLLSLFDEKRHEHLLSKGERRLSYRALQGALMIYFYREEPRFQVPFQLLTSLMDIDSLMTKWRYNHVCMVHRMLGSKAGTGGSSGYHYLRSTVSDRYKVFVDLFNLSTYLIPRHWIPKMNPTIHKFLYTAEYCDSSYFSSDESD
Procedure, shortened: (§1)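 HEK293 clones stably expressing human IDO1 or human TDO (CMV promoter), 2.5×10^4 cells/well, given serial compound dilutions for 24 h. Kynurenine measured in supernatant; inhibition relative to cell/0.2% DMSO and media-only controls. IC50 by nonlinear regression.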

[2] = biological target: T2, Human Tryptophan 2,3-dioxygenase (TDO) (Homo sapiens, UniProt P48775); assay: Human TDO enzymatic assay (kynurenine level); format: biochemical; details: 1 nM TDO, 350 μM L-Trp; geometric mean; read-out: TDO GMean: IC50 (μM) (Biochemical Assay)
T2 construct: His tag (N); made in house; host or cells: E. coli
T2 sequence (P48775 whole entry): as above
Procedure, shortened: (§2)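 N-terminally His-tagged enzymes expressed in E. coli were run in 50 mM sodium phosphate pH 6.5 with 10 mM ascorbate, catalase and Tween 20. IDO: 6 nM enzyme, 10 μM L-Trp, 5 μM methylene blue, 20 min RT. TDO: 1 nM enzyme, 350 μM L-Trp, 0.4 μM methylene blue, 70 min RT.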

[3] = biological target: T3, human IDO (IDO1-expressing HEK293 cells) (Homo sapiens, UniProt P14902); assay: Cell based kynurenine assay, IDO1-expressing HEK293 cell clones; details: IDO1-expressing HEK293 cells, geometric mean, read-out: HEK293 IDO1 Kynurenine GMean IC50 (μM) (Cellular Assay)
T3 construct: expressed in transfected cells
T3 sequence (P14902 whole entry): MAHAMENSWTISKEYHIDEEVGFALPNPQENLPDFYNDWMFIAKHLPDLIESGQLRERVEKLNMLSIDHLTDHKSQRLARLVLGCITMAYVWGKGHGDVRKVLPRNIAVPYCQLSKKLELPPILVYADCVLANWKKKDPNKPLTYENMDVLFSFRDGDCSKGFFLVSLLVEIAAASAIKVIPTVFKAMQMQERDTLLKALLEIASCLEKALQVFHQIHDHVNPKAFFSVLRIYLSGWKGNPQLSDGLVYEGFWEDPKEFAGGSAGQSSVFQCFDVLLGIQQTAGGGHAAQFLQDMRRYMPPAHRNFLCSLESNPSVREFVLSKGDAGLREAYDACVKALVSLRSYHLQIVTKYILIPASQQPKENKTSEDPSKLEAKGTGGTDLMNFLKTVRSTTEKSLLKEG
Procedure, shortened: as §1

[4] = biological target: T4, Human Indoleamine 2,3-dioxygenase (IDO) (Homo sapiens, UniProt P14902); assay: Human IDO enzymatic assay (kynurenine level); format: biochemical; details: 6 nM IDO, 10 μM L-Trp; geometric mean; read-out: IDO1 GMean: IC50 (μM) (Biochemical Assay)
T4 construct: His tag (N); made in house; host or cells: E. coli
T4 sequence (P14902 whole entry): as above
Procedure, shortened: as §2

Compound | IC50 ([1]; 24 hours incubation) [µM] | IC50 [2] [µM] | IC50 ([3]; 24 hours incubation) [µM] | IC50 [4] [µM] | IC50 ([1]; 24 hours) [µM] | IC50 ([3]; 24 hours) [µM]
CNS(=O)(=O)N1CCC(C(F)(F)C(O)c2cc(Cl)cc3cn[nH]c23)CC1 (centres unmarked) [Compound P-0330, 4-(2-(5-chloro-1H-indazol-7-yl)-1,1-difluoro-2-hydroxyethyl)-N-methylpiperidine-1-sulfonamide] | 0.0001 to 10 | 0.0001 to 10 | 0.0001 to 10 | 0.0001 to 10 |  | 
COCCNC(=O)N1CCC(C(C)(C)[C@H](O)c2c(F)c(Cl)cc3cn[nH]c23)CC1 [Compound P-0510, (S)-4-(1-(5-chloro-6-fluoro-1H-indazol-7-yl)-1-hydroxy-2-methylpropan-2-yl)-N-(2-methoxyethyl) piperidine-1-carboxamide] |  | 0.0001 to 10 |  | 0.0001 to 10 | 0.0001 to 10 | 0.0001 to 10
CC(C)(C1CCN(C(=O)c2c(F)cccc2Cl)CC1)C(O)c1cc(Cl)cc2cn[nH]c12 (centres unmarked) [Compound P-0369, (4-(1-(5-chloro-1H-indazol-7-yl)-1-hydroxy-2-methylpropan-2-yl)piperidin-1-yl)(2-chloro-6-fluorophenyl) methanone] | 0.0001 to 10 | 0.0001 to 10 | 0.0001 to 10 | 0.0001 to 10 |  | 
CC(C)(C1CCN(C(=O)NC2CCOCC2)CC1)C(O)c1cc(Cl)cc2cn[nH]c12 (centres unmarked) [Compound P-0451, 4-(1-(5-chloro-1H-indazol-7-yl)-1-hydroxy-2-methylpropan-2-yl)-N-(tetrahydro-2H-pyran-4-yl)piperidine-1-carboxamide] |  | 0.0001 to 10 |  | 0.0001 to 10 | 0.0001 to 10 | 0.0001 to 10
CC(C)(C1CCN(C2CC2)CC1)C(O)c1cc(Cl)cc2cn[nH]c12 (centres unmarked) [Compound P-0319, 1-(5-chloro-1H-indazol-7-yl)-2-(1-cyclopropylpiperidin-4-yl)-2-methylpropan-1-ol] | 0.0001 to 10 | 0.0001 to 10 | 0.0001 to 10 | 0.0001 to 10 |  | 
OC1(c2cc(C(F)(F)F)cc3cn[nH]c23)CC2(CCC2)C1 [Compound P-0031, 2-(5-(trifluoromethyl)-1H-indazol-7-yl)spiro[3.3]heptan-2-ol] | > 10 | 0.0001 to 10 | > 10 | 0.0001 to 10 |  | 
CS(=O)(=O)N1CCC(C(F)(F)C(O)c2cc(Cl)cc3cn[nH]c23)CC1 (centres unmarked) [Compound P-0270, 1-(5-chloro-1H-indazol-7-yl)-2,2-difluoro-2-(1-(methylsulfonyl)piperidin-4-yl)ethan-1-ol] | 0.0001 to 10 | 0.0001 to 10 | 0.0001 to 10 | 0.0001 to 10 |  | 
C[C@H](NC(=O)N1CCC(C(C)(C)C(O)c2cc(Cl)cc3cn[nH]c23)CC1)c1ccccc1 (stereo partly drawn) [Compound P-0354, 4-(1-(5-chloro-1H-indazol-7-yl)-1-hydroxy-2-methylpropan-2-yl)-N-((S)-1-phenylethyl) piperidine-1-carboxamide] | 0.0001 to 10 | 0.0001 to 10 | 0.0001 to 10 | 0.0001 to 10 |  | 
CC(=O)N1CCC(C(F)(F)C(O)c2cc(Cl)cc3cn[nH]c23)CC1 (centres unmarked) [Compound P-0295, 1-(4-(2-(5-chloro-1H-indazol-7-yl)-1,1-difluoro-2-hydroxyethyl)piperidin-1-yl)ethan-1-one] | 0.0001 to 10 | 0.0001 to 10 | 0.0001 to 10 | 0.0001 to 10 |  | 
CC1(C)C2CCC(C2)[C@]12C[C@@](O)(c1cc(Cl)cc3cn[nH]c31)C2 (some centres unmarked) [Compound P-0193, (2s,3′s)-3′-(5-chloro-1H-indazol-7-yl)-3,3-dimethylspiro[bicyclo[2.2.1]heptane-2,1′-cyclobutan]-3′-ol] | 0.0001 to 10 | 0.0001 to 10 | 0.0001 to 10 | 0.0001 to 10 |  | 
CC(C)(C1CCN(C(=O)c2ccc(N3CCOCC3)nc2)CC1)[C@H](O)c1cc(Cl)cc2cn[nH]c12 [Compound P-0538, (S)-(4-(1-(5-chloro-1H-indazol-7-yl)-1-hydroxy-2-methylpropan-2-yl)piperidin-1-yl)(6-morpholinopyridin-3-yl)methanone] |  | 0.0001 to 10 |  | 0.0001 to 10 | 0.0001 to 10 | 0.0001 to 10
CC(C)(C1CCN(S(N)(=O)=O)CC1)C(O)c1cc(Cl)cc2cn[nH]c12 (centres unmarked) [Compound P-0324, 4-(1-(5-chloro-1H-indazol-7-yl)-1-hydroxy-2-methylpropan-2-yl)piperidine-1-sulfonamide] | 0.0001 to 10 | 0.0001 to 10 | 0.0001 to 10 | 0.0001 to 10 |  | 
CC(C)(C1CCN(C(=O)Nc2cc(Cl)cc(Cl)c2)CC1)C(O)c1cc(Cl)cc2cn[nH]c12 (centres unmarked) [Compound P-0395, 4-(1-(5-chloro-1H-indazol-7-yl)-1-hydroxy-2-methylpropan-2-yl)-N-(3,5-dichlorophenyl) piperidine-1-carboxamide] | 0.0001 to 10 | 0.0001 to 10 | 0.0001 to 10 | 0.0001 to 10 |  | 
OC(c1c(F)c(Cl)cc2cn[nH]c12)C(F)(F)C1(O)CCC1 (centres unmarked) [Compound P-0290, 1-(2-(5-chloro-6-fluoro-1H-indazol-7-yl)-1,1-difluoro-2-hydroxyethyl)cyclobutan-1-ol] | 0.0001 to 10 | 0.0001 to 10 | 0.0001 to 10 | 0.0001 to 10 |  | 
O=C1NCCC12CCN(c1cc(Cl)cc3cn[nH]c13)CC2 [Compound P-0111, 8-(5-chloro-1H-indazol-7-yl)-2,8-diazaspiro[4.5]decan-l-one] | 0.0001 to 10 | 0.0001 to 10 | 0.0001 to 10 | 0.0001 to 10 |  | 
CC(C)(C1CCN(S(C)(=O)=O)CC1)C(O)c1cc(Cl)cc2[nH]ncc12 (centres unmarked) [Compound P-0171, 1-(6-chloro-1H-indazol-4-yl)-2-methyl-2-(1-(methylsulfonyl)piperidin-4-yl)propan-1-ol] | 0.0001 to 10 | 0.0001 to 10 | > 10 | 0.0001 to 10 |  | 
CC(C)(O)CNC(=O)N1CCC(C(C)(C)C(O)c2cc(Cl)cc3cn[nH]c23)CC1 (centres unmarked) [Compound P-0475, 4-(1-(5-chloro-1H-indazol-7-yl)-1-hydroxy-2-methylpropan-2-yl)-N-(2-hydroxy-2-methylpropyl) piperidine-1-carboxamide] |  | 0.0001 to 10 |  | 0.0001 to 10 | 0.0001 to 10 | 0.0001 to 10
COC(=O)C12CCC(C(O)c3cc(Cl)cc4cn[nH]c34)(CC1)CC2 (centres unmarked) [Compound P-0326, methyl 4-((5-chloro-1H-indazol-7-yl)(hydroxy)methyl)bicyclo [2.2.2]octane-1-carboxylate] | 0.0001 to 10 | 0.0001 to 10 | 0.0001 to 10 | 0.0001 to 10 |  | 
CC(C)(C(O)c1cc(Cl)cc2cn[nH]c12)N1CCCC1 (centres unmarked) [Compound P-0231, 1-(5-chloro-1H-indazol-7-yl)-2-methyl-2-(pyrrolidin-1-yl)propan-1-ol] | > 10 | 10 to 100 | > 10 | 100 to 200 |  | 
CCC(=O)NC(C)(C)CC(O)c1cc(Cl)cc2cn[nH]c12 (centres unmarked) [Compound P-0170, N-(4-(5-chloro-1H-indazol-7-yl)-4-hydroxy-2-methylbutan-2-yl)propionamide] | > 10 | 0.0001 to 10 | > 10 | 0.0001 to 10 |  | 
CC(C)(C)OC(=O)N1CCC(C(C)(C)[C@@H](O)c2cc(Cl)cc3cn[nH]c23)CC1 [Compound P-0338, tert-butyl (R)-4-(1-(5-chloro-1H-indazol-7-yl)-1-hydroxy-2-methylpropan-2-yl)piperidine-1-carboxylate] | 0.0001 to 10 | 0.0001 to 10 | > 10 | 0.0001 to 10 |  | 
OC(c1cccc2cncn12)C1CCCCCCC1 (centres unmarked) [Compound P-0063] | > 10 | 0.0001 to 10 | > 10 | 0.0001 to 10 |  | 
OC(c1cc(Cl)cc2cn[nH]c12)C1(C(F)(F)F)CC1 (centres unmarked) [Compound P-0119, (5-chloro-1H-indazol-7-yl)(1-(trifluoromethyl)cyclopropyl)methanol] | 0.0001 to 10 | 0.0001 to 10 | 0.0001 to 10 | 0.0001 to 10 |  | 
CC(C)(C1CCN(C(=O)Nc2ccccc2Cl)CC1)[C@@H](O)c1cc(Cl)cc2cn[nH]c12 [Compound P-0432, (R)-4-(1-(5-chloro-1H-indazol-7-yl)-1-hydroxy-2-methylpropan-2-yl)-N-(2-chlorophenyl) piperidine-1-carboxamide] |  | 0.0001 to 10 |  | 0.0001 to 10 | 0.0001 to 10 | > 10
CC(C)(C1CCN(C(=O)C2CCC2)CC1)C(O)c1cc(Cl)cc2cn[nH]c12 (centres unmarked) [Compound P-0412, (4-(1-(5-chloro-1H-indazol-7-yl)-1-hydroxy-2-methylpropan-2-yl)piperidin-1-yl)(cyclobutyl) methanone] |  | 0.0001 to 10 |  | 0.0001 to 10 | 0.0001 to 10 | 0.0001 to 10
CC(C)(C1CCOCC1)C(O)c1c(F)c(Cl)cc2cn[nH]c12 (centres unmarked) [Compound P-0232, 1-(5-chloro-6-fluoro-1H-indazol-7-yl)-2-methyl-2-(tetrahydro-2H-pyran-4-yl)propan-1-ol] | 0.0001 to 10 | 0.0001 to 10 | 0.0001 to 10 | 0.0001 to 10 |  | 
